From patent publication US9139568B2 (Merck Patent GmbH, priority 2011, dated 2015)

Key:
AKT = AKT (Homo sapiens (Human), UniProt P31749); assay: AKT Enyzme Assay; type: biochemical; details: His-AKT (Full Length), 160 uM ATP, mobility shift (Caliper)
Experimental: A TTP Mosquito liquid handling instrument is used to place 125 nl of the appropriate concentration of inhibitor in 100% DMSO (for a dose response curve calculation) into each well of a 384-well plate.
The reaction is incubated for 90 min at 25 C, and then stopped by the addition of 70 μl of Stop buffer (100 mM HEPES pH 7.5, 0.015% Brij-35, 10 mM EDTA (Sigma, E7889)).
The plate is read on a Caliper LC 3000 in an Off-Chip mobility shift assay format, using the following parameters for a 12-sipper chip: screening pressure −2.3 psi, upstream voltage −500, and downstream voltage −3000. These conditions cause unphosphorylated substrate and phosphorylated product peptide to resolve as separate peaks allowing direct measurement of percentage of conversion of substrate to product. The percent conversion can be plotted against concentration of inhibitor to produce a sigmoidal dose response curve, from which an IC50 can be calculated.

P70S6K = P70S6K (Homo sapiens (Human), UniProt P23443, T412E); assay: P70S6K Enzyme Assay; type: biochemical; details: P70S6K T412E mutant, 24 μM ATP, mobility shift (Caliper)
Experimental: P70S6K inhibitor compounds are diluted and plated in 96 well plates. […] The reaction is incubated for 90 min at 25° C., before the addition of 10 mM EDTA to stop the reaction. The proportion of substrate and product (phosphorylated) peptide is analysed on a Caliper Life Sciences Lab Chip 3000, using a pressure of −1.4 psi, and upstream and downstream voltages of −3000 and −700 respectively. Product peaks are resolved before substrate peaks on the resulting chromatograms.

Sequence of P70S6K (P23443 1-421 T412E): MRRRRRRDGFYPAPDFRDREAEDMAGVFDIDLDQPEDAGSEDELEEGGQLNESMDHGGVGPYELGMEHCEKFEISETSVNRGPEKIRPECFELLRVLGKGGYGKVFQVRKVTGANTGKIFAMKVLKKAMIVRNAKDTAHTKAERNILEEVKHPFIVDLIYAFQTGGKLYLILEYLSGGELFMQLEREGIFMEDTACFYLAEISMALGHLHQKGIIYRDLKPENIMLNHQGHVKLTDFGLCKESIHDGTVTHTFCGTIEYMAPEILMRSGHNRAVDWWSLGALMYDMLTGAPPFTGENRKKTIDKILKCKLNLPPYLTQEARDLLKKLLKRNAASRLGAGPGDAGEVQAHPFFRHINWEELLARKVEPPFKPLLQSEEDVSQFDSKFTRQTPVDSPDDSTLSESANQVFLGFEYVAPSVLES
Sequence of AKT (P31749 whole entry): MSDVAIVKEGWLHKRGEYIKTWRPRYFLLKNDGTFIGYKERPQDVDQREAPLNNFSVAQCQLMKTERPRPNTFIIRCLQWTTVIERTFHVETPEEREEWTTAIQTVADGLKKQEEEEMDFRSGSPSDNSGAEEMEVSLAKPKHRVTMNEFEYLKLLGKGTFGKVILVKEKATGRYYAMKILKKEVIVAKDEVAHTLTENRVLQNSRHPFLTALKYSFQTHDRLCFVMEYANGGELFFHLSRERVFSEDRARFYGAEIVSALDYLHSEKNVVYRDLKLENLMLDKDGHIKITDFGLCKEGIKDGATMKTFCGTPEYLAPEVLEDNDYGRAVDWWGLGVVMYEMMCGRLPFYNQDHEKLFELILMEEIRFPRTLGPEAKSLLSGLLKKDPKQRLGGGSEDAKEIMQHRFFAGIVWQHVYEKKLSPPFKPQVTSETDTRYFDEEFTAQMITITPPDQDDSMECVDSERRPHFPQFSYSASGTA

SMILES	IC50 (AKT) [nM]	IC50 (P70S6K) [nM]
CN1CCC(Nc2ccc(C(N)=O)c3ncncc23)C1 (racemic) [Example 58, 5-((1-methylpyrrolidin-3-yl)amino)quinazoline-8-carboxamide]	> 100000	20000
NC(=O)c1ccc(NCc2cccnc2)c2cncnc12 [Example 62, 5-((pyridin-3-ylmethyl)amino)quinazoline-8-carboxamide]	70000	1600
NC(=O)c1ccc(N2CCN(c3ccc(C(F)(F)F)cc3)CC2)c2cncnc12 [Example 90, 5-[4-(4-Trifluoromethyl-phenyl)-piperazin-1-yl]-quinazoline-8-carboxylic acid amide]	> 100000	24000
CNCC1CCCN(c2ccc(C(N)=O)c3ncncc23)C1 (racemic) [Example 59, 5-(3-((methylamino)methyl)piperidin-1-yl)quinazoline-8-carboxamide]	18000	5900
NC(=O)c1ccc(NCCc2ccc(F)c(F)c2)c2cncnc12 [Example 101, 5-[2-(3,4-difluorophenyl)ethylamino]quinazoline-8-carboxamide]	41000	360
NC(=O)c1ccc(NC2CCNCC2c2ccc(F)cc2)c2cncnc12 (centres unmarked) [Example 70, 5-((3-(4-fluorophenyl)piperidin-4-yl)amino)quinazoline-8-carboxamide]	2500	550
NCC1CCCN(c2ccc(C(N)=O)c3ncncc23)C1 (racemic) [Example 56, 5-(3-(aminomethyl)piperidin-1-yl)quinazoline-8-carboxamide]	> 100000	56000
NC(=O)c1ccc(NCC(c2ccccc2)N2CCNCC2)c2cncnc12 (racemic) [Example 69, 5-((2-phenyl-2-(piperazin-1-yl)ethyl)amino)quinazoline-8-carboxamide]	10000	–
NC(=O)c1ccc(N2CCC(N)(CNC(=O)c3ccc(F)cc3F)C2)c2cncnc12 (racemic) [Example 9, 5-(3-amino-3-((2,4-difluorobenzamido)methyl)pyrrolidin-1-yl)quinazoline-8-carboxamide]	–	> 1000
NC(=O)c1ccc(N2CC[C@H](CNC(=O)c3ccc(F)c(F)c3)C2)c2cncnc12 (single isomer, unassigned) [Example 114]	–	470
Cc1ccccc1N1CCN(c2ccc(C(N)=O)c3ncncc23)CC1 [Example 120, 5-[4-(2-methyl-phenyl)-piperazin-1-yl]-quinazoline-8-carboxylic acid amide]	–	980
NC(=O)c1ccc(N2CCC(NC(=O)c3cccc(C(F)(F)F)c3)C2)c2cncnc12 (racemic) [Example 48, 5-(3-(3-(trifluoromethyl)benzamido)pyrrolidin-1-yl)quinazoline-8-carboxamide]	–	2200
NC(=O)c1ccc(NC2(c3ccccc3)CNC2)c2cccnc12 [Example 19, 5-((3-phenylazetidin-3-yl)amino)quinoline-8-carboxamide]	–	> 1000
NC(=O)c1ccc(N2CC[C@H](c3cccc(F)c3)[C@@H](N)C2)c2cncnc12 (racemic) [Example 89, 5-[(3R,4R)-3-Amino-4-(3-fluoro-phenyl)-piperidin-1-yl]-quinazoline-8-carboxylic acid amide]	–	2400
NC(=O)c1ccc(N2CC[C@](N)(C(=O)Nc3ccc(F)c(C(F)(F)F)c3)C2)c2cncnc12 (single isomer, unassigned) [Example 117]	–	380
NC(=O)c1ccc(NCC2(C(=O)Nc3ccccc3)CCNC2)c2cncnc12 (racemic) [Example 12, 5-(((3-(phenylcarbamoyl)pyrrolidin-3-yl)methyl)amino)quinazoline-8-carboxamide]	–	650
NC(=O)c1ccc(N2CCC(NC(=O)Cc3ccc(F)cc3)C2)c2cncnc12 (racemic) [Example 51, 5-(3-(2-(4-fluorophenyl)acetamido)pyrrolidin-1-yl)quinazoline-8-carboxamide]	–	5400
NC(=O)c1ccc(NCc2ccccc2F)c2cccnc12 [Example 32, 5-(2-Fluorobenzylamino)-quinoline-8-carboxamide]	–	> 1000
NC(=O)c1ccc(N2CCN(c3ccccc3F)CC2)c2cncnc12 [Example 121, 5-[4-(2-fluorophenyl)-piperazin-1-yl]-quinazoline-8-carboxylic acid amide]	–	12000
NC(=O)c1ccc(NCc2ccc(F)cc2)c2cccnc12 [Example 31, 5-(4-Fluorobenzylamino)-quinoline-8-carboxamide]	–	875
NC(=O)c1ccc(NC2CNCC[C@@H]2c2cccc(F)c2)c2cccnc12 (mixture of isomers) [Example 25, 5-((4-(3-fluorophenyl)piperidin-3-yl)amino)quinoline-8-carboxamide]	–	520
NC(=O)c1ccc(NCC2(C(=O)Nc3ccccc3)CCNC2)c2cccnc12 (racemic) [Example 20, 5-(((3-(phenylcarbamoyl)pyrrolidin-3-yl)methyl)amino)quinoline-8-carboxamide]	–	> 1000
NC(=O)c1ccc(N2CCN(c3ccccc3Cl)CC2)c2cncnc12 [Example 119, 5-[4-(2-chloro-phenyl)-piperazin-1-yl]-quinazoline-8-carboxylic acid amide]	–	400
NC(=O)c1ccc(NC(=O)C2NC[C@@H]2c2ccccc2)c2cccnc12 (stereo partly drawn) [Example 30, 5-((3S)-3-phenylazetidine-2-carboxamido)quinoline-8-carboxamide]	–	> 1000

Now from value to compound:

IC50 (AKT) [nM]	IC50 (P70S6K) [nM]	SMILES
> 100000	100	NC(=O)c1ccc(NC2CNCC2c2cccc(OC(F)(F)F)c2)c2cncnc12 (centres unmarked) [Example 72, 5-((4-(3-(trifluoromethoxy)phenyl)pyrrolidin-3-yl)amino)quinazoline-8-carboxamide]
5600	89	NC(=O)c1ccc(NCCc2ccccc2)c2cncnc12 [Example 98, 5-(phenethylamino)quinazoline-8-carboxamide]
850	50	NC(=O)c1ccc(N[C@H]2CNCC[C@@H]2c2ccc(F)c(Cl)c2)c2cncnc12 (single isomer, unassigned) [Example 77]
12000	59.2	NC(=O)c1ccc(NCc2cccc(Cl)c2)c2cncnc12 [Example 63, 5-((3-chlorobenzyl)amino)quinazoline-8-carboxamide]
4500	21	NC(=O)c1ccc(NC2CNCC2c2cccc(C(F)(F)F)c2)c2cncnc12 (centres unmarked) [Example 71, 5-((4-(3-(trifluoromethyl)phenyl)pyrrolidin-3-yl)amino)quinazoline-8-carboxamide]
8200	190	Cc1cccc([C@@H]2CN(c3ccc(C(N)=O)c4ncncc34)C[C@H]2CO)c1 [Example 67, 5-((3S,4R)-3-(hydroxymethyl)-4-(m-tolyl)pyrrolidin-1-yl)quinazoline-8-carboxamide]
2200	290	NC(=O)c1ccc(N[C@H]2CNCC[C@@H]2c2ccc(F)cc2)c2cncnc12 (single isomer, unassigned) [Example 80]
–	160	NC(=O)c1ccc(NC2CNC[C@@H]2c2cc(F)cc(Cl)c2)c2cncnc12 (mixture of isomers) [Example 2, 5-((4-(3-chloro-5-fluorophenyl)pyrrolidin-3-yl)amino)quinazoline-8-carboxamide]
–	23	NC(=O)c1ccc(NC2CNC[C@@H]2c2ccc(OC(F)(F)F)cc2)c2cncnc12 (mixture of isomers) [Example 1, 5-((4-(4-(trifluoromethoxy)phenyl)pyrrolidin-3-yl)amino)quinazoline-8-carboxamide]
–	250	NC(=O)c1ccc(N2CC[C@H](c3ccc(F)cc3)[C@H](N)C2)c2cncnc12 (racemic) [Example 86, 5-[(3S,4R)-3-Amino-4-(4-fluoro-phenyl)-piperidin-1-yl]-quinazoline-8-carboxylic acid amide]
–	233	NC(=O)c1ccc(N2CCC(CNC(=O)c3ccc(F)c(F)c3)C2)c2cncnc12 (racemic) [Example 54, 5-(3-((3,4-difluorobenzamido)methyl)pyrrolidin-1-yl)quinazoline-8-carboxamide]
–	5.9	NC(=O)c1ccc(NC2CNCCC2c2ccc(C(F)(F)F)c(F)c2)c2cncnc12 (racemic) [Example 4, 5-((4-(3-fluoro-4-(trifluoromethyl)phenyl)piperidin-3-yl)amino)quinazoline-8-carboxamide]
–	260	NC(=O)c1ccc(N2CCC(CNC(=O)Cc3ccccc3)C2)c2cncnc12 (centres unmarked) [Example 118]
–	22	NC(=O)c1ccc(NC2CNC[C@@H]2c2cccc(OC(F)(F)F)c2)c2cccnc12 (mixture of isomers) [Example 21, 5-((-4-(3-(trifluoromethoxy)phenyl)pyrrolidin-3-yl)amino)quinoline-8-carboxamide]
–	210	NCC(c1ccc(C(F)(F)F)cc1)N1CCN(c2ccc(C(N)=O)c3ncncc23)CC1 (racemic) [Example 8, 5-(4-(2-amino-1-(4-(trifluoromethyl)phenyl)ethyl)piperazin-1-yl)quinazoline-8-carboxamide]
